Laboratory results as given in the kinase profiling compilation of Christmann-Franck et al. (2016).

Assays:
Assay in all cases: KINOMEscan competition binding
Settings in all cases: compound 10.0 µM
[1] = target: MST4 (human) (UniProt Q9P289)
[2] = target: HIPK1 (human) (UniProt Q86Z02)
[3] = target: LATS1 (human) (UniProt O95835)
[4] = target: FRK (human) (UniProt P42685)
[5] = target: MAPK14 (human) (UniProt Q16539)
[6] = target: ERBB2 (human) (UniProt P04626)
[7] = target: RPS6KA6 KD2 (human) (UniProt Q9UK32)
[8] = target: AURKB (human) (UniProt Q96GD4)
[9] = target: SRPK3 (human) (UniProt Q9UPE1)
[10] = target: ADCK3 (human) (UniProt Q8NI60)
[11] = target: MAPK1 (human) (UniProt P28482)
Sequence of MAPK1 (human) (P28482 whole entry, looked up): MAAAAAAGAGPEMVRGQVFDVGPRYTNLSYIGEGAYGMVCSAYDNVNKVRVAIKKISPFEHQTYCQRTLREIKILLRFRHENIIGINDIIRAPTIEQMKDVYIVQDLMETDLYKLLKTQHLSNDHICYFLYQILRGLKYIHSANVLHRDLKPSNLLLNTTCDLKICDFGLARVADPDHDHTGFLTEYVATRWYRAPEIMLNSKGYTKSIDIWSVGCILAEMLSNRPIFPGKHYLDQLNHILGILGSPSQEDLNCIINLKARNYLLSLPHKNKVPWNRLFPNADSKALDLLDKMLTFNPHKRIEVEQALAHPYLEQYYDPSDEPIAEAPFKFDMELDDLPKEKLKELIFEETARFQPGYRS

[12] = target: CDK3 (human) (UniProt Q00526)
Sequence of CDK3 (human) (Q00526 whole entry, looked up): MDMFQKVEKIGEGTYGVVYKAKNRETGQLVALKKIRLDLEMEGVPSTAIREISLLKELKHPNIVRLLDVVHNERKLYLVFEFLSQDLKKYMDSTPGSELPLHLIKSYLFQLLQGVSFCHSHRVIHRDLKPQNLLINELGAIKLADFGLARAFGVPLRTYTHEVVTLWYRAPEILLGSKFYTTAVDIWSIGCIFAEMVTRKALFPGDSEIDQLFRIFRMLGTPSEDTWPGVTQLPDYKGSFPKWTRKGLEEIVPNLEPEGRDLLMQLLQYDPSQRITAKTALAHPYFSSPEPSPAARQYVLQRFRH

[13] = target: MAPK15 (human) (UniProt Q8TD08)
[14] = target: FGR (human) (UniProt P09769)
[15] = target: TGFBR1 (human) (UniProt P36897)
Sequence of TGFBR1 (human) (P36897 whole entry, looked up): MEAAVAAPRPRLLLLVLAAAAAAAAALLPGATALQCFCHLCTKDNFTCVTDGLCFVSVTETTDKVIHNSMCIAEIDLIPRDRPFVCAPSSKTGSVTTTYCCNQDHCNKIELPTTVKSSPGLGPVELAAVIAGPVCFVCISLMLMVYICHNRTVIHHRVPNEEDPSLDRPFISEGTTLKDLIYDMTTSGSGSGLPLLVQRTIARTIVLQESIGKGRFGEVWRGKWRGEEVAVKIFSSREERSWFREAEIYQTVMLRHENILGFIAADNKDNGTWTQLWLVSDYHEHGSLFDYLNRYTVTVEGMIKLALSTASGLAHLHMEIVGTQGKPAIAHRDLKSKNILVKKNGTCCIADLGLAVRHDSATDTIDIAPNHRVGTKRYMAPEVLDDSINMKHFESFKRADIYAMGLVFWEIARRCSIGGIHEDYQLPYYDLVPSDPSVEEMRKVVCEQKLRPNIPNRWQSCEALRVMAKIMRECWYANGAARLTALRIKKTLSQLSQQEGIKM

[16] = target: SRMS (human) (UniProt Q9H3Y6)
[17] = target: PIK3CD (human) (UniProt O00329)
[18] = target: ERBB4 (human) (UniProt Q15303)
[19] = target: ULK2 (human) (UniProt Q8IYT8)
[20] = target: ULK3 (human) (UniProt Q6PHR2)
[21] = target: DYRK1B (human) (UniProt Q9Y463)
[22] = target: CLK2 (human) (UniProt P49760)
[23] = target: RPS6KA6 KD1 (human) (UniProt Q9UK32)
[24] = target: PHKG1 (human) (UniProt Q16816)
Sequence of PHKG1 (human) (Q16816 whole entry, looked up): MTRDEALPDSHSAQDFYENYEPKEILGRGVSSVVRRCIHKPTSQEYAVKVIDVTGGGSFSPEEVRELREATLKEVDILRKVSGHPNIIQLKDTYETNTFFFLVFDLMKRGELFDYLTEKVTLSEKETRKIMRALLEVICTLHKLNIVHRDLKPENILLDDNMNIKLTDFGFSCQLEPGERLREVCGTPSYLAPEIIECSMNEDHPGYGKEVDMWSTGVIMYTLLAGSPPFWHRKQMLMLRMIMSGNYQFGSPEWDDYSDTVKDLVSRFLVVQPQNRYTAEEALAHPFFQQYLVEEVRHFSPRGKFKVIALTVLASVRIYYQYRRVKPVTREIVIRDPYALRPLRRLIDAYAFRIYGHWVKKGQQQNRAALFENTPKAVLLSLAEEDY

[25] = target: RET (human) (UniProt P07949)
Sequence of RET (human) (P07949 whole entry, looked up): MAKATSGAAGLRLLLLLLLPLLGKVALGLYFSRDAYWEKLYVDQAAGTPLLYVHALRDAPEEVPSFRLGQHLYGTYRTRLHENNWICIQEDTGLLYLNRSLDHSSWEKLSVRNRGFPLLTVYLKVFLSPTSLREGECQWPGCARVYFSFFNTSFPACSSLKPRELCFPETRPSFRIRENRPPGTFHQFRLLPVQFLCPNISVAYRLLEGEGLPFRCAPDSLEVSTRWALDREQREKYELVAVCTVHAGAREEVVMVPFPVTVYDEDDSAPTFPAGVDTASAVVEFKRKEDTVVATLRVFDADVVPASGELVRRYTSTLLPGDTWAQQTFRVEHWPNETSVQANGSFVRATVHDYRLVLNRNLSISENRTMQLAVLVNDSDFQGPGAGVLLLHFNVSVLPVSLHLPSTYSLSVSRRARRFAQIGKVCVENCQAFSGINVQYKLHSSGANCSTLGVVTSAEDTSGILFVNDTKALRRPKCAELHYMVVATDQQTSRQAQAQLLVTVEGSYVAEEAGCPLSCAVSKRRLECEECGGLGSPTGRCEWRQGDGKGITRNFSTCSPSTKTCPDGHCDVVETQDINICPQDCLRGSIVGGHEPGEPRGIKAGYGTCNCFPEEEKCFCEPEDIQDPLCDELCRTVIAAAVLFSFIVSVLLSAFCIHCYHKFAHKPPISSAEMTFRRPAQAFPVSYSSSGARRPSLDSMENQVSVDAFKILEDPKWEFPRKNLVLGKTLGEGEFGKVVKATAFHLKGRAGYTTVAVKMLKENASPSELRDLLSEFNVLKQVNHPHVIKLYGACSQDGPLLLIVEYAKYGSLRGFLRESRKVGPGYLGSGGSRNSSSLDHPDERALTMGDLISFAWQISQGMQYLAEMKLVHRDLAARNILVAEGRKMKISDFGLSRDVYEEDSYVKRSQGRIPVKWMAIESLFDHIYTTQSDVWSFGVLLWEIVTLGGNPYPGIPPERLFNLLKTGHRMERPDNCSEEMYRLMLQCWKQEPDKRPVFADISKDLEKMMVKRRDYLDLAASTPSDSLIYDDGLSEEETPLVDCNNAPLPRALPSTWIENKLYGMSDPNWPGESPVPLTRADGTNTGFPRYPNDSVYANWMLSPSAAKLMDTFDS

[26] = target: PRKD1 (human) (UniProt Q15139)
Sequence of PRKD1 (human) (Q15139 whole entry, looked up): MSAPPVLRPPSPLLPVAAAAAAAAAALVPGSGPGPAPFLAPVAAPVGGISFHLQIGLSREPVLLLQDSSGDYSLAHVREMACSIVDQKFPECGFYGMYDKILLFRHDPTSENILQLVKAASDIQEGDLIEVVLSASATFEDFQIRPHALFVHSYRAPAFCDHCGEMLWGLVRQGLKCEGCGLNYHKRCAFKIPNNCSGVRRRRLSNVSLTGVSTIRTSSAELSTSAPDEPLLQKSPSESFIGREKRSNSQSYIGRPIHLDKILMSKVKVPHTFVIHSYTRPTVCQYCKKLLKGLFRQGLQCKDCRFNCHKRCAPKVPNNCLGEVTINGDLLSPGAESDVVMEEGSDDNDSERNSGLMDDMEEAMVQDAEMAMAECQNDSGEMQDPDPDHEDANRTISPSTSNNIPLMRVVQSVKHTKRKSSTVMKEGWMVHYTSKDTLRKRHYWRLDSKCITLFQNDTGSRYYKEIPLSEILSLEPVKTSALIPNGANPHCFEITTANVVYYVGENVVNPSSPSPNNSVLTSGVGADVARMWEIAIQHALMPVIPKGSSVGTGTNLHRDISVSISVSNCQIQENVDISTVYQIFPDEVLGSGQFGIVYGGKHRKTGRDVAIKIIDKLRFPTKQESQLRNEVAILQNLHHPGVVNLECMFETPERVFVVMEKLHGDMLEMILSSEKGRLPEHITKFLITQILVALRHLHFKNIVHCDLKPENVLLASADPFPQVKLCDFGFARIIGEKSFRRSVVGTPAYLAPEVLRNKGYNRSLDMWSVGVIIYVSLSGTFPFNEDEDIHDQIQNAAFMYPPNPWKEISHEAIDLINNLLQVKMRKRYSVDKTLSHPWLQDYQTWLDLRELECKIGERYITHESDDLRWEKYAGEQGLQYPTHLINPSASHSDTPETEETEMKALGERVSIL

[27] = target: MAPKAPK5 (human) (UniProt Q8IW41)
[28] = target: CDC42BPB (human) (UniProt Q9Y5S2)
[29] = target: TLK2 (human) (UniProt Q86UE8)
[30] = target: DDR2 (human) (UniProt Q16832)
[31] = target: AKT2 (human) (UniProt P31751)
[32] = target: DAPK2 (human) (UniProt Q9UIK4)
[33] = target: PRKG1 (human) (UniProt Q13976)
[34] = target: FGFR3 (human) (UniProt P22607)
[35] = target: ACVR2A (human) (UniProt P27037)
[36] = target: CDC2L2 (human) (UniProt Q9UQ88)
Sequence of CDC2L2 (human) (Q9UQ88 whole entry, looked up): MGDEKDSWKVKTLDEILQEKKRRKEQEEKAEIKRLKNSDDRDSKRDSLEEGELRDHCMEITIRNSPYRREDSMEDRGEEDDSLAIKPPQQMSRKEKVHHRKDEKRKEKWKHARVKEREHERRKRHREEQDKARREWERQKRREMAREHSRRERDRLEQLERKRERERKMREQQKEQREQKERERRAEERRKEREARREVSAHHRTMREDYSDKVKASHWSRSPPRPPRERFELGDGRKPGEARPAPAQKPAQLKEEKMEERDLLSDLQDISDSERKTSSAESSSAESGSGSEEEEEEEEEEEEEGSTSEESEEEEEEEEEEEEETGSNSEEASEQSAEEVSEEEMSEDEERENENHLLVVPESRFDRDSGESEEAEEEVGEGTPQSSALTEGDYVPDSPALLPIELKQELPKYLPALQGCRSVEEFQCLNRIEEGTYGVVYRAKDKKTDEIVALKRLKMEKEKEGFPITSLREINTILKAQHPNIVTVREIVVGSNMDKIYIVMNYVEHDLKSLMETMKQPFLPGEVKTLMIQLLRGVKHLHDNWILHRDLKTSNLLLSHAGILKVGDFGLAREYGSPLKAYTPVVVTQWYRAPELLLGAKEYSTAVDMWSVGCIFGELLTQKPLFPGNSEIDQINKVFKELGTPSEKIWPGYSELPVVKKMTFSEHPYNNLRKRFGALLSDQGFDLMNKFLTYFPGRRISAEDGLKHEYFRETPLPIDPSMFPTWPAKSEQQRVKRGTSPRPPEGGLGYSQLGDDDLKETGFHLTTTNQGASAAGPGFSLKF

[37] = target: LIMK2 (human) (UniProt P53671)
Sequence of LIMK2 (human) (P53671 whole entry, looked up): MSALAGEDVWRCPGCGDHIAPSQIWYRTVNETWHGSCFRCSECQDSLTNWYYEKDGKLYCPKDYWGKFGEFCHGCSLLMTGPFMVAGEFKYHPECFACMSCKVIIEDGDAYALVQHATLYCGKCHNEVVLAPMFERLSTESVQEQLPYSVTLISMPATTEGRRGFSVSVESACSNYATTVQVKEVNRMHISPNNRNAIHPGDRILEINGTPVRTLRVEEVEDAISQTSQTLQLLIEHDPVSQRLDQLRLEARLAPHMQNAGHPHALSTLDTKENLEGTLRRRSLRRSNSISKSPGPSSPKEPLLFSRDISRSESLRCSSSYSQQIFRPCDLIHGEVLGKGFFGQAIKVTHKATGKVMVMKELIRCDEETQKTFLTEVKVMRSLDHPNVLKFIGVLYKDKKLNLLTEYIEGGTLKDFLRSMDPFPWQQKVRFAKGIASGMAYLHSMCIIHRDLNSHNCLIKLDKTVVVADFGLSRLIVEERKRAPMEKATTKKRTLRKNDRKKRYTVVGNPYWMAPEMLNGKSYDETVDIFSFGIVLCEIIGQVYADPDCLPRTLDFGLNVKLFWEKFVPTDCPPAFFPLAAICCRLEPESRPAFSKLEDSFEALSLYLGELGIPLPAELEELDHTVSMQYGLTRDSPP

[38] = target: MAP3K5 (human) (UniProt Q99683)
[39] = target: CAMK2B (human) (UniProt Q13554)
[40] = target: PKN2 (human) (UniProt Q16513)

Row | SMILES | kinase still bound, per cent of control [1] [%] | kinase still bound, per cent of control [2] [%] | kinase still bound, per cent of control [3] [%] | kinase still bound, per cent of control [4] [%] | kinase still bound, per cent of control [5] [%] | kinase still bound, per cent of control [6] [%] | kinase still bound, per cent of control [7] [%] | kinase still bound, per cent of control [10] [%] | kinase still bound, per cent of control [11] [%] | kinase still bound, per cent of control [12] [%] | kinase still bound, per cent of control [13] [%] | kinase still bound, per cent of control [14] [%] | kinase still bound, per cent of control [15] [%] | kinase still bound, per cent of control [16] [%] | kinase still bound, per cent of control [17] [%] | kinase still bound, per cent of control [19] [%] | kinase still bound, per cent of control [20] [%] | kinase still bound, per cent of control [21] [%] | kinase still bound, per cent of control [22] [%] | kinase still bound, per cent of control [23] [%] | other results
1 | CC[C@@H]1C(=O)N(C)c2cnc(Nc3ccc(C(=O)NC4CCN(C)CC4)cc3OC)nc2N1C1CCCC1 | 100 | 100 | 100 | 100 | 100 | 100 | 8.3 | 100 | 100 | 100 | 100 | 100 | 100 | 100 | 100 | 100 | 100 | 100 | 5.4 | 100 | kinase still bound, per cent of control [8]: 100%; kinase still bound, per cent of control [9]: 100%; kinase still bound, per cent of control [18]: 100%; kinase still bound, per cent of control [24]: 100%; kinase still bound, per cent of control [25]: 100%; kinase still bound, per cent of control [26]: 7%; kinase still bound, per cent of control [27]: 100%; kinase still bound, per cent of control [28]: 100%; kinase still bound, per cent of control [29]: 100%; kinase still bound, per cent of control [30]: 100%; kinase still bound, per cent of control [31]: 100%; kinase still bound, per cent of control [32]: 16%; kinase still bound, per cent of control [33]: 100%; kinase still bound, per cent of control [34]: 100%; kinase still bound, per cent of control [35]: 100%; kinase still bound, per cent of control [36]: 100%; kinase still bound, per cent of control [37]: 100%; kinase still bound, per cent of control [38]: 100%
2 | CCC(=O)N1CCN(c2ccc(-n3c(=O)ccc4cnc5ccc(-c6cnc7ccccc7c6)cc5c43)cc2C(F)(F)F)CC1 | 89 | 63 | 100 | 60 | 90 | 91 | 86 | 17 | 100 | 100 | 79 | 78 | 70 | 92 | 51 | 75 | 100 | 87 | 65 | 66 | kinase still bound, per cent of control [8]: 82%; kinase still bound, per cent of control [39]: 100%; kinase still bound, per cent of control [18]: 100%; kinase still bound, per cent of control [40]: 65%; kinase still bound, per cent of control [24]: 100%; kinase still bound, per cent of control [25]: 44%; kinase still bound, per cent of control [26]: 99%; kinase still bound, per cent of control [27]: 100%; kinase still bound, per cent of control [28]: 3.4%; kinase still bound, per cent of control [29]: 100%; kinase still bound, per cent of control [30]: 100%; kinase still bound, per cent of control [31]: 100%; kinase still bound, per cent of control [33]: 86%; kinase still bound, per cent of control [34]: 42%; kinase still bound, per cent of control [35]: 47%; kinase still bound, per cent of control [36]: 100%; kinase still bound, per cent of control [37]: 4.8%; kinase still bound, per cent of control [38]: 100%
3 | CCCS(=O)(=O)Nc1ccc(F)c(C(=O)c2c[nH]c3ncc(-c4ccc(Cl)cc4)cc23)c1F | 100 | 90 | 100 | 16 | 70 | 100 | 75 | 100 | 100 | 94 | 89 | 9.2 | 53 | 0.05 | 89 | 100 | 46 | 100 | 46 | 82 | kinase still bound, per cent of control [9]: 100%; kinase still bound, per cent of control [39]: 98%; kinase still bound, per cent of control [40]: 92%; kinase still bound, per cent of control [24]: 100%; kinase still bound, per cent of control [25]: 43%; kinase still bound, per cent of control [26]: 8.2%; kinase still bound, per cent of control [27]: 100%; kinase still bound, per cent of control [28]: 79%; kinase still bound, per cent of control [29]: 94%; kinase still bound, per cent of control [30]: 35%; kinase still bound, per cent of control [31]: 76%; kinase still bound, per cent of control [32]: 95%; kinase still bound, per cent of control [33]: 100%; kinase still bound, per cent of control [34]: 93%; kinase still bound, per cent of control [35]: 100%; kinase still bound, per cent of control [36]: 91%; kinase still bound, per cent of control [37]: 24%; kinase still bound, per cent of control [38]: 100%
